From publication PMC10449633 (Nature Chemical Biology, 2023)
pIC50: −log10 of the molar value. Values joined by “and” are separate entries in the source; they are usually repeats but may differ in a detail not shown here. Equal entries are not always repeated. “Also recorded” adds a separate entry of the source. Where two headings read alike, the source gives them in different places. Numbered stars: 1 amine (or outer) side, 2 acyl side, 3 side chain; on linkers, the order of the positions; unused ones are H or OH. Square brackets hold non-standard residues; d marks the D form. Peptide text beside a SMILES is read from it. ξ: configuration not given here. X1 = CN(C(Cc1cn(Cc2ccc(Br)cc2)c2ccccc12)C(=O)[*:2])[*:1]; ξAla(CF3) = NC(CC(F)(F)F)C(=O)O; X2 = N#CCCC(O[*:1])C(=O)[*:2]; NMeL = CN[CH](CC(C)C)C(=O)O; NMeA = CN[CH](C)C(=O)O

What was measured:
Sec61 [1] = target: T1, Sec61 (Homo sapiens, UniProt P61619); assay: signal peptide-GLuc (SP-GLuc) reporter panel, 89 constructs; assay type: cell-based; conditions: read-out: log10(IC50 8445) (converted)
T1 construct: endogenous in cells
Excerpt: The heat map depicts IC50 values calculated from each SP-GLuc dose–response curve. d, Arthritis was induced in BALB/c mice with antibodies specific for type II collagen (mAb) on day 0 and endotoxin on day 3. On day 4, when the disease was present in all animals, mice were randomized and treated for 2 weeks with thrice weekly (QODx3) or weekly (QW) intravenous administration of vehicle or KZR-8445 or intraperitoneal administration of dexamethasone. Clinical scores (0–4 per paw; n = 10 per group) and body weights were followed until day 14. Data are presented as mean values ± s.d. mAb, monoclonal antibody. Source data
To investigate the effects of KZR-8445 on secretory and membrane protein biogenesis and to establish Sec61α as the relevant target, we quantified the secretion of a doxycycline-inducible Gaussia luciferase (GLuc) reporter fused to the C-terminus of two full-length pro-inflammatory cytokines, interleukin-2 (IL-2) (which contains a cleavable signal peptide) and tumor necrosis factor-alpha (TNFα) (which contains an N-terminal transmembrane anchor). […] KZR-8445 is structurally related to CT8, which discriminates among Sec61 clients based largely on their N-terminal signal peptide. […] We also directly compared KZR-8445 to mycolactone A/B, a structurally distinct and relatively client-nonselective Sec61 inhibitor[8],[25], for their ability to discriminate between vascular cell adhesion molecule (VCAM) and preprolactin (pPL) signal peptides.
Target sequence in this assay (P61619 whole entry): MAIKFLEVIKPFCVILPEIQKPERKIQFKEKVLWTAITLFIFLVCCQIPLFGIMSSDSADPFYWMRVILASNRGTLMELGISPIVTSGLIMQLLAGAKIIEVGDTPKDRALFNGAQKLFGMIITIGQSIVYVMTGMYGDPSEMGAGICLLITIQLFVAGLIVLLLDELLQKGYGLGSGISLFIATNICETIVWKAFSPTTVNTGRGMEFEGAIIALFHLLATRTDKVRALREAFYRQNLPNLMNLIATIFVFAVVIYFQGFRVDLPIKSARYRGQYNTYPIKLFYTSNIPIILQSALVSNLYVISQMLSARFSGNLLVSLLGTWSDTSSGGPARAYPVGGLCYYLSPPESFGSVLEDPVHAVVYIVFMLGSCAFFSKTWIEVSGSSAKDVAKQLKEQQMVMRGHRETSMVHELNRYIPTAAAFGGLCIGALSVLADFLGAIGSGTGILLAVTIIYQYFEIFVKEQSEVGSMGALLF
Target sequence in this assay (P60059 whole entry, further chain): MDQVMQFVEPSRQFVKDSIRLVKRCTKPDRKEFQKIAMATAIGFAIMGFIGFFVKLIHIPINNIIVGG
Target sequence in this assay (P60468 whole entry, further chain): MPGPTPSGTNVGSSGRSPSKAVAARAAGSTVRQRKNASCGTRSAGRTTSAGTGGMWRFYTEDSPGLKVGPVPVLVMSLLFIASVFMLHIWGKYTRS

Sec61 [2] = target: T1, Sec61; assay: cell-based; conditions: 24 h, range in brackets
Target sequence in this assay (P60059 whole entry): as the sequence (P60059 whole entry, further chain) above
Target sequence in this assay (P61619 whole entry): as the sequence (P61619 whole entry) above
Target sequence in this assay (P60468 whole entry, further chain): as the sequence (P60468 whole entry, further chain) above

mouse splenocytes [3] = assay: Cytokine secretion assay, stimulated mouse splenocytes (MSD U-PLEX); assay type: cell-based; conditions: 24 h, tested 0.025–25,000 nM
[4] = tested on: collagen antibody-induced arthritis in BALB/c mice; assay: Anticollagen antibody-induced arthritis model, clinical scores; assay type: in vivo, mouse
mouse splenocytes [5] = conditions: 24 h treatment

CC(C)CC1NC(=O)C(Cc2cn(Cc3ccc(Br)cc3)c3ccccc23)N(C)C(=O)C(CC(F)(F)F)NC(=O)C(CC(C)C)N(C)C(=O)C(CC(F)(F)F)NC(=O)C(CCC#N)OC(=O)C(C)N(C)C1=O (stereo not drawn) [KZR-8445] (cyclo([X1]L[NMeA][X2][ξAla(CF3)][NMeL][ξAla(CF3)]); configuration not given here)
IC50 (Sec61 [1]; ITGA3 SP-GLuc): 18300 nM | IC50 (Sec61 [1]; ITGB1 SP-GLuc): > 25000 nM | IC50 (Sec61 [1]; ITGB3 SP-GLuc): 106 nM | IC50 (Sec61 [1]; ITGB5 SP-GLuc): 89.1 nM | IC50 (Sec61 [1]; ITGB7 SP-GLuc): 228 nM | IC50 (Sec61 [1]; JTB SP-GLuc): 25.5 nM | IC50 (Sec61 [1]; KRTDAP SP-GLuc): 570 nM | IC50 (Sec61 [1]; LCN6 SP-GLuc): 101 nM | IC50 (Sec61 [1]; LDLR SP-GLuc): 800 nM | IC50 (Sec61 [1]; LILRB2 SP-GLuc): 1730 nM | IC50 (Sec61 [1]; LRP8 SP-GLuc): 681 nM | IC50 (Sec61 [1]; LRRC32 SP-GLuc): > 25000 nM | IC50 (Sec61 [1]; MASP2 SP-GLuc): 127 nM | IC50 (Sec61 [1]; METTL7a SP-GLuc): 6900 nM | IC50 (Sec61 [1]; NGF SP-GLuc): 347 nM | IC50 (Sec61 [1]; P3H1 SP-GLuc): 72.7 nM | IC50 (Sec61 [1]; PCDHA4 SP-GLuc): 489 nM | IC50 (Sec61 [1]; PCSK9 SP-GLuc): 1280 nM | IC50 (Sec61 [1]; PDCD1 SP-GLuc): 37 nM | IC50 (Sec61 [1]; PRKCSH SP-GLuc): 186 nM | IC50 (Sec61 [1]; PSG8 SP-GLuc): 292 nM | IC50 (Sec61 [1]; SIRPA SP-GLuc): 2030 nM | IC50 (Sec61 [1]; SSR2 SP-GLuc): 137 nM | IC50 (Sec61 [1]; STAB1 SP-GLuc): 670 nM | IC50 (Sec61 [1]; SUCO SP-GLuc): 1450 nM | IC50 (Sec61 [1]; TGFB1 SP-GLuc): 2210 nM | IC50 (Sec61 [1]; TGFB2 SP-GLuc): 187 nM | IC50 (Sec61 [1]; TGFB3 SP-GLuc): > 25000 nM | IC50 (Sec61 [1]; TGFBR1 SP-GLuc): 134 nM | IC50 (Sec61 [1]; TIGIT SP-GLuc): 590 nM | IC50 (Sec61 [1]; TMED10 SP-GLuc): 462 nM | IC50 (Sec61 [1]; UCN SP-GLuc): 5900 nM | IC50 (Sec61 [2]; HER3 signal peptide-GLuc, read-out: IC50 (nM) HER3): 72 nM | IC50 (Sec61 [2]; PD1 signal peptide-GLuc, read-out: IC50 (nM) PD1): 32 nM | IC50 (Sec61 [2]; full-length IL-2-GLuc, read-out: IC50 (nM) IL-2): 84 nM | IC50 (Sec61 [2]; full-length TNFα-GLuc, read-out: IC50 (nM) TNFα): 40 nM | IC50 (Sec61 [2]; prolactin signal peptide-GLuc, read-out: IC50 (nM) Prolactin): 1070 nM | pIC50 (mouse splenocytes [3]; LPS-stimulation, read-out: IC50, IL-6 secretion): 6.82 | pIC50 (mouse splenocytes [3]; Mus musculus, Splenocyte, LPS-stimulation, read-out: IC50, IL-1β secretion): < 4.60 | pIC50 (mouse splenocytes [3]; Mus musculus, Splenocyte, LPS-stimulation, read-out: IC50, IL-6 secretion): 6.94 | pIC50 (mouse splenocytes [3]; Mus musculus, Splenocyte, LPS-stimulation, read-out: IC50, IL-23 secretion): 6.69 | pIC50 (mouse splenocytes [3]; Mus musculus, Splenocyte, anti-CD3/CD28-stimulation, read-out: IC50, GM-CSF secretion): 7.51 | pIC50 (mouse splenocytes [3]; Mus musculus, Splenocyte, anti-CD3/CD28-stimulation, read-out: IC50, IFNγ secretion): 7.22 | pIC50 (mouse splenocytes [3]; Mus musculus, Splenocyte, anti-CD3/CD28-stimulation, read-out: IC50, TNFα secretion): 6.99 | pIC50 (mouse splenocytes [3]; anti-CD3/CD28-stimulation, read-out: IC50, GM-CSF secretion): 7.40 | pIC50 (mouse splenocytes [3]; anti-CD3/CD28-stimulation, read-out: IC50, IFNγ secretion): 7.49 | pIC50 (mouse splenocytes [3]; anti-CD3/CD28-stimulation, read-out: IC50, TNFα secretion): 7.07 | P versus vehicle (one-way ANOVA), disease progression ([4]; 10 mg kg−1 thrice weekly): 0.01 | P versus vehicle (one-way ANOVA), disease progression ([4]; 20 mg kg−1 thrice weekly): < 0.0001 | P versus vehicle, disease progression ([4]; 20 mg kg−1 weekly): 0.007 | efficacy of weekly administration ([4]; 20 mg kg−1 weekly): effective | arthritis disease progression / clinical symptoms ([4]; IV thrice weekly after onset of disease): blocked disease progression in a dose-dependent manner; also recorded: ameliorated clinical arthritis symptoms | anti-inflammatory effect compared with dexamethasone ([4]; highest dose): stronger anti-inflammatory effect than the corticosteroid dexamethasone | cell viability (CTG assay) (mouse splenocytes [5]; 0.025 nM): 106.047 and 100.001 | cell viability (CTG assay) (mouse splenocytes [5]; 0.25 nM): 110.01 and 102.05 | cell viability (CTG assay) (mouse splenocytes [5]; 2.5 nM): 105.776 and 105.957 | cell viability (CTG assay) (mouse splenocytes [5]; 25 nM): 105.176 and 97.9523 | cell viability (CTG assay) (mouse splenocytes [5]; 250 nM): 107.467 and 93.3938 | cell viability (CTG assay) (mouse splenocytes [5]; 2500 nM): 99.7089 and 85.9729 | cell viability (CTG assay) (mouse splenocytes [5]; 25000 nM): 95.1208 and 88.5789
